The NIST ThermoML archive (doi:10.1021/je9006597)

Legend:
[1] = 101 kPa, Liquid; for speed of sound: Pulse-echo method
[2] = xn = mol fraction of the nth substance listed; conditions: 101 kPa, Liquid; for speed of sound: Pulse-echo method

C1CCCCC1 [cyclohexane]
[1]
Conditions	mass density [kg/m3]	speed of sound [m/s]	viscosity [mPa·s]
303.15 K	768.3	1228	0.823
308.15 K	764.4	1208	0.772
313.15 K	760.5	1188	0.685

CCCCCCC [heptane]
[1]
Conditions	mass density [kg/m3]	speed of sound [m/s]	viscosity [mPa·s]
303.15 K	674.5	1116	0.375
308.15 K	670.3	1092	0.35
313.15 K	667.2	1072	0.325

CCCCCC [hexane]
[1]
Conditions	mass density [kg/m3]	speed of sound [m/s]	viscosity [mPa·s]
303.15 K	649.8	1048	0.283
308.15 K	645.9	1028	0.269
313.15 K	642.2	1008	0.252

COC(=O)c1ccccc1 [methyl benzoate]
[1]
Conditions	mass density [kg/m3]	speed of sound [m/s]	viscosity [mPa·s]
303.15 K	1078.3	1380	1.667
308.15 K	1074.4	1364	1.514
313.15 K	1070.3	1348	1.376

COC(=O)c1ccccc1 [methyl benzoate] + CCCCCC
[2]
Conditions	mass density, 303.15 K [kg/m3]	mass density, 308.15 K [kg/m3]	mass density, 313.15 K [kg/m3]	speed of sound, 303.15 K [m/s]	speed of sound, 308.15 K [m/s]	speed of sound, 313.15 K [m/s]	viscosity, 303.15 K [mPa·s]	viscosity, 308.15 K [mPa·s]	viscosity, 313.15 K [mPa·s]
x1 = 0.1027	692.7	689	685.1	1072	1052	1036	0.324	0.301	0.283
x1 = 0.2076	738	734.2	730.3	1100	1080	1064	0.384	0.358	0.335
x1 = 0.3084	781.4	777.6	773.7	1128	1108	1096	0.441	0.409	0.383
x1 = 0.4087	825.2	821.3	817.3	1160	1140	1128	0.527	0.487	0.454
x1 = 0.5114	869.6	865.6	861.7	1196	1180	1164	0.624	0.579	0.542
x1 = 0.6115	913.1	909.2	905.3	1232	1220	1200	0.751	0.688	0.635
x1 = 0.7092	955.5	951.5	947.3	1272	1256	1240	0.915	0.844	0.78
x1 = 0.8069	997.7	993.7	989.7	1312	1292	1280	1.104	1.016	0.935
x1 = 0.9024	1036.9	1033	1029.1	1344	1328	1316	1.37	1.238	1.135
x1 = 1	1078.3	1074.4	1070.3	1380	1364	1348	1.667	1.514	1.376

COC(=O)c1ccccc1 [methyl benzoate] + CCCCCCC
[2]
Conditions	mass density, 303.15 K [kg/m3]	mass density, 308.15 K [kg/m3]	mass density, 313.15 K [kg/m3]	speed of sound, 303.15 K [m/s]	speed of sound, 308.15 K [m/s]	speed of sound, 313.15 K [m/s]	viscosity, 303.15 K [mPa·s]	viscosity, 308.15 K [mPa·s]	viscosity, 313.15 K [mPa·s]
x1 = 0.1154	715.5	711.3	708.1	1128	1108	1088	0.413	0.38	0.35
x1 = 0.2273	756.4	752.4	749.1	1148	1128	1108	0.467	0.43	0.401
x1 = 0.335	797.1	793.1	789.8	1168	1148	1128	0.533	0.494	0.458
x1 = 0.439	837.7	833.9	830.5	1192	1172	1152	0.627	0.575	0.529
x1 = 0.5404	878.6	874.8	871.3	1220	1196	1180	0.723	0.666	0.615
x1 = 0.6365	918.3	914.7	911.1	1248	1228	1212	0.84	0.781	0.728
x1 = 0.7324	959	955.3	951.7	1276	1260	1248	0.99	0.904	0.849
x1 = 0.8252	999.4	995.7	992.1	1308	1296	1284	1.172	1.068	0.982
x1 = 0.9133	1038.7	1034.8	1030.9	1348	1336	1324	1.404	1.284	1.15
x1 = 1	1078.3	1074.4	1070.3	1380	1364	1348	1.667	1.514	1.376

COC(=O)c1ccccc1 [methyl benzoate] + CCCCCCCC
[2]
Conditions	mass density, 303.15 K [kg/m3]	mass density, 308.15 K [kg/m3]	mass density, 313.15 K [kg/m3]	speed of sound, 303.15 K [m/s]	speed of sound, 308.15 K [m/s]	speed of sound, 313.15 K [m/s]	viscosity, 303.15 K [mPa·s]	viscosity, 308.15 K [mPa·s]	viscosity, 313.15 K [mPa·s]
x1 = 0.129	732.2	728.8	725.3	1160	1140	1124	0.522	0.484	0.447
x1 = 0.2456	770	766.4	762.9	1180	1160	1144	0.576	0.529	0.492
x1 = 0.3586	809.2	805.5	801.8	1200	1180	1164	0.644	0.596	0.556
x1 = 0.4655	848.4	844.5	840.7	1220	1200	1184	0.727	0.668	0.621
x1 = 0.5672	887.5	883.6	879.7	1240	1224	1204	0.832	0.762	0.705
x1 = 0.662	925.8	921.9	918	1260	1248	1228	0.936	0.857	0.788
x1 = 0.7528	964.3	960.3	956.5	1284	1272	1252	1.084	0.99	0.913
x1 = 0.8382	1002.3	998.1	994.3	1308	1300	1280	1.245	1.125	1.033
x1 = 0.9213	1040.6	1036.4	1032.4	1340	1328	1308	1.434	1.303	1.193
x1 = 1	1078.3	1074.4	1070.3	1380	1364	1348	1.667	1.514	1.376

CCCCCCCC [octane]
[1]
Conditions	mass density [kg/m3]	speed of sound [m/s]	viscosity [mPa·s]
303.15 K	693.9	1148	0.491
308.15 K	690.4	1132	0.45
313.15 K	687	1112	0.415

CCCCCCCC [octane] + COC(=O)c1ccccc1
[2], x2 = 0
Conditions	mass density [kg/m3]	speed of sound [m/s]	viscosity [mPa·s]
303.15 K	693.9	1148	0.491
308.15 K	690.4	1132	0.45
313.15 K	687	1112	0.415
